As usually defined, the IC50 is the point on the concentration scale where inhibition reaches its midpoint. A lower IC50 goes with greater potency in that assay.

This note sets out measurements from patent US9505745B2, “Enhancer of zeste homolog 2 inhibitors” (GlaxoSmithKline Intellectual Property (No.2) Limited, priority 2013, dated 2016).

The target in this experiment is EZH2 within the PRC2 complex (Homo sapiens (Human), UniProt Q15910). Briefly: EZH2 methyltransferase SPA, biotinylated histone H3K27 peptide substrate (Assay Protocol 2). The note with it: 3H-SAM, ≦10 nM approaches limit of detection. It is filed as biochemical. On the procedure: Compounds contained herein were evaluated for their ability to inhibit the methyltransferase activity of EZH2 within the PRC2 complex. Human PRC2 complex was prepared by co-expressing each of the 5 member proteins (FLAG-EZH2, EED, SUZ12, RbAp48, AEBP2) in Sf9 cells followed by co-purification. Enzyme activity was measured in a scintillation proximity assay (SPA) where a tritiated methyl group is transferred from 3H-SAM to a lysine residue on a biotinylated, unmethylated peptide substrate derived from histone H3. The peptides were captured on streptavidin-coated SPA beads and the resulting signal was read on a ViewLux plate reader.
EZH2 within the PRC2 complex, sequence (Q15910 whole entry): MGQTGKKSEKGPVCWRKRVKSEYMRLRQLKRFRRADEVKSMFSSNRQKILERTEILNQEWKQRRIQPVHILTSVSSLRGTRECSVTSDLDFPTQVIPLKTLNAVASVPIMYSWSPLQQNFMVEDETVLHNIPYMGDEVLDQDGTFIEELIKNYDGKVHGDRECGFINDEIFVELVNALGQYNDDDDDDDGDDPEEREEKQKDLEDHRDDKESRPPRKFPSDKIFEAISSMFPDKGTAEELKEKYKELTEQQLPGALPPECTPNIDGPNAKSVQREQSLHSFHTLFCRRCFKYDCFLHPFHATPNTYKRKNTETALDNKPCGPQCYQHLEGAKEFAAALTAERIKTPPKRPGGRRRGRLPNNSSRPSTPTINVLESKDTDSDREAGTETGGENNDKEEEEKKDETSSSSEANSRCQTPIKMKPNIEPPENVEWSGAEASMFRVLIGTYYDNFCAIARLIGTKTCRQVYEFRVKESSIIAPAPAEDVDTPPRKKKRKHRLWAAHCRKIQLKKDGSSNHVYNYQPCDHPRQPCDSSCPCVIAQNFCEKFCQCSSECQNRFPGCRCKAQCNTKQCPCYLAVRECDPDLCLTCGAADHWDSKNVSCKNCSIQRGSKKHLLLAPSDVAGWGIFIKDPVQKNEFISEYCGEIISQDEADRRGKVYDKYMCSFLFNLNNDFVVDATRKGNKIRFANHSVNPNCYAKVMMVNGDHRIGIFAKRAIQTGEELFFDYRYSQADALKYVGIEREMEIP
EZH2 within the PRC2 complex, sequence (O75530 whole entry partner): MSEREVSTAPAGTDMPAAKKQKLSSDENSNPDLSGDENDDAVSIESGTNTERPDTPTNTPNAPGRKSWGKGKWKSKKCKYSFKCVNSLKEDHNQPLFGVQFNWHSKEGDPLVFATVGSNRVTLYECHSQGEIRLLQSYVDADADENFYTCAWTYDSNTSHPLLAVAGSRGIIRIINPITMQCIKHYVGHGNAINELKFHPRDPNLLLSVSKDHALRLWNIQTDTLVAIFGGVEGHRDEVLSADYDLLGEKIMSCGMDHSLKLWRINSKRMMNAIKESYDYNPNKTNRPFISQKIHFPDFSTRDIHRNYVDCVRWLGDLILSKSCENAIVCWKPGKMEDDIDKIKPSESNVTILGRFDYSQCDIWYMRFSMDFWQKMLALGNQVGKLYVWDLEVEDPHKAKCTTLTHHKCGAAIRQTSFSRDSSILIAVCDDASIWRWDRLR
EZH2 within the PRC2 complex, sequence (Q15022 whole entry partner): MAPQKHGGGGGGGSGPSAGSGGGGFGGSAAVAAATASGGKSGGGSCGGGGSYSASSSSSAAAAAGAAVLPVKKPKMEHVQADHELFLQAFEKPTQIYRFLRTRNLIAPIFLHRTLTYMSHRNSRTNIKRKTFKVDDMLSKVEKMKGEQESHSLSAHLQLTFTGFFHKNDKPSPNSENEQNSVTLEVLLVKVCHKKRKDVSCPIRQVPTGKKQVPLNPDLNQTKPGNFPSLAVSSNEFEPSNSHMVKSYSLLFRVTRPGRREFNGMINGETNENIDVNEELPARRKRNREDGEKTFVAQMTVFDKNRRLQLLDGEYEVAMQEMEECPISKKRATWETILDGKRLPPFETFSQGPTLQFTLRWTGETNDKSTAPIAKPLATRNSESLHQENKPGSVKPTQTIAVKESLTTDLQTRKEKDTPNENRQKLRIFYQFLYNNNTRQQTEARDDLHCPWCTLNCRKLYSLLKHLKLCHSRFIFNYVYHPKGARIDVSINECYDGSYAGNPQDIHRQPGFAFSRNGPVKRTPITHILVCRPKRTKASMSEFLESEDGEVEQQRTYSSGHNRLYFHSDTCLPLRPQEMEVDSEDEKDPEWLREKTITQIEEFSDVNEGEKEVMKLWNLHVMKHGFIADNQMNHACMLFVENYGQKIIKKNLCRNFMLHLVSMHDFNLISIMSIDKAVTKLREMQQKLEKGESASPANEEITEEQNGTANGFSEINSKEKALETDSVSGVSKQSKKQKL
EZH2 within the PRC2 complex, sequence (Q09028 whole entry partner): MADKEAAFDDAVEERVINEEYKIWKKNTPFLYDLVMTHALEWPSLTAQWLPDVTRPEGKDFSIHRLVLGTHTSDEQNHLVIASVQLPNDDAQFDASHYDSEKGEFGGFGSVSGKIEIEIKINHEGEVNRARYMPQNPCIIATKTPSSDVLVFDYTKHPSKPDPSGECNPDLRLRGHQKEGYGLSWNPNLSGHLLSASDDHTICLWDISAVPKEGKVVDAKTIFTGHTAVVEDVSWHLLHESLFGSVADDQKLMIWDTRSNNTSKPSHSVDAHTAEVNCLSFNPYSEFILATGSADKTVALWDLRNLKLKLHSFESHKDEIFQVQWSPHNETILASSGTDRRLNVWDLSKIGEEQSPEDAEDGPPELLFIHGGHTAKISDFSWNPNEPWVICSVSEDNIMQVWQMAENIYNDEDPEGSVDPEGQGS
EZH2 within the PRC2 complex, sequence (Q6ZN18 whole entry partner): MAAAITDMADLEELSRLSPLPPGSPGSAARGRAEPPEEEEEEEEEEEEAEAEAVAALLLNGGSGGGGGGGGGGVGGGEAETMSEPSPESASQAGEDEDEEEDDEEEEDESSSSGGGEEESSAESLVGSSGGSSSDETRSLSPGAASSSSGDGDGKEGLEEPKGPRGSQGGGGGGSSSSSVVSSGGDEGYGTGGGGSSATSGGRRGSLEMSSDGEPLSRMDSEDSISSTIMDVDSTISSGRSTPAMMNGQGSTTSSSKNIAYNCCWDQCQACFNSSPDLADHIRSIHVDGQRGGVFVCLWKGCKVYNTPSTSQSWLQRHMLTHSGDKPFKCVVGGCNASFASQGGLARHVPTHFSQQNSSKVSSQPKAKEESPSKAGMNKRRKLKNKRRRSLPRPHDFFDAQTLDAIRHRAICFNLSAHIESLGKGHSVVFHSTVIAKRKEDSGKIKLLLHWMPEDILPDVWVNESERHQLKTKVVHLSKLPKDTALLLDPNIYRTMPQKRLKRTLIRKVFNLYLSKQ
Part A. Compound Preparation
• 4. Prepare 10 mM stock of compounds from solid in 100% DMSO. • 5. Set up an 11-point serial dilution (1:4 dilution, top concentration 10 mM) in 100% DMSO for each test compound in a 384 well plate leaving columns 6 and 18 for DMSO controls. • 6. Dispense 10 nL of compound from the dilution plate into reaction plates (Corning, 384-well polystyrene NBS, Cat#3673). Part B. Reagent Preparation Prepare the following solutions: • 7. 1× Base Buffer, 50 mM Tris-HCl, pH 8, 2 mM MgCl2: Per 1 L of base buffer, combine 1 M Tris-HCl, pH 8 (50 mL), 1 M MgCl2 (2 mL), and distilled water (948 mL). • 8. 1× Assay Buffer: Per 10 mL of 1× Assay Buffer, combine 1× Base Buffer (9.96 mL), 1 M DTT (40 uL), and 10% Tween-20 (1 uL) to provide a final concentration of 50 mM Tris-HCl, pH 8, 2 mM MgCl2, 4 mM DTT, 0.001% Tween-20. • 9. 2× Enzyme Solution: Per 10 mL of 2× Enzyme Solution, combine 1× Assay Buffer (9.99 mL) and 3.24 uM EZH2 5 member complex (6.17 uL) to provide a final enzyme concentration of 1 nM. • 10. SPA Bead Solution: Per 1 mL of SPA Bead Solution, combine Streptavidin coated SPA beads (PerkinElmer, Cat#RPNQ0261, 40 mg) and 1× Assay Buffer (1 mL) to provide a working concentration of 40 mg/mL. • 11. 2× Substrate Solution: Per 10 mL of 2× Substrate Solution, combine 40 mg/mL SPA Bead Solution (375 uL), 1 mM biotinylated histone H3K27 peptide (200 uL), 12.5 uM 3H-SAM (240 uL; 1 mCi/mL), 1 mM cold SAM (57 uL), and 1× Assay Buffer (9.13 mL) to provide a final concentration of 0.75 mg/mL SPA Bead Solution, 10 uM biotinylated histone H3K27 peptide, 0.15 uM 3H-SAM (˜12 uCi/mL 3H-SAM), and 2.85 uM cold SAM. • 12. 2.67× Quench Solution: Per 10 mL of 2.67× Quench Solution, combine 1× Assay Buffer (9.73 mL) and 10 mM cold SAM (267 uL) to provide a final concentration of 100 uM cold SAM. Part C. Assay Reaction in 384-well Grenier Bio-One Plates Compound Addition • 3. Stamp 10 nL/well of 1000× Compound to test wells (as noted above). • 4. Stamp 10 nL/well of 100% DMSO to columns 6 & 18 (high and low controls, respectively). Assay • 10. Dispense 5 uL/well of 1× Assay Buffer to column 18 (low control reactions). • 11. Dispense 5 uL/well of 2× Substrate Solution to columns 1-24 (note: substrate solution should be mixed to ensure homogeneous bead suspension before dispensing into matrix reservoir). • 12. Dispense 5 uL/well of 2× Enzyme Solution to columns 1-17, 19-24. • 13. Incubate the reaction for 60 min at room temperature. Quench • 5. Dispense 6 uL/well of the 2.67× Quench Solution to columns 1-24. • 6. Seal assay plates and spin for ˜1 min at 500 rpm. • 7. Dark adapt plates in the ViewLux instrument for 15-60 min. Read plates • 2. Read the assay plates on the Viewlux Plate Reader utilizing the 613 nm emission filter or clear filter (300 s exposure). Reagent addition can be done manually or with automated liquid handler. Results
Percent inhibition was calculated relative to the DMSO control for each compound concentration and the resulting values were fit using standard IC50 fitting parameters within the ABASE data fitting software package.

The compound `CCN(c1sc(C2CCN(C(=O)OC(C)(C)C)CC2)c(C(=O)NCc2c(C)cc(C)[nH]c2=O)c1C)C1CCOCC1` [Example 59, tert-Butyl 4-(3-(((4,6-dimethyl-2-oxo-1,2-dihydropyridin-3-yl)methyl)carbamoyl)-5-(ethyl(tetrahydro-2H-pyran-4-yl)amino)-4-methylthiophen-2-yl)piperidine-1-carboxylate] came in with an IC50 of 316 nM.
Under `CCC(c1scc(C(=O)NCc2c(C)cc(C)[nH]c2=O)c1C)C1CCN(C(=O)OC(C)(C)C)CC1` (stereo not shown) [Example 39, tert-Butyl 4-(1-(4-(((4,6-dimethyl-2-oxo-1,2-dihydropyridin-3-yl)methyl)carbamoyl)-3-methylthiophen-2-yl)propyl)piperidine-1-carboxylate] stands 50 nM.
To `C/C=C(/c1scc(C(=O)NCc2c(C)cc(C)[nH]c2=O)c1C)[C@H]1CC[C@H](NC(=O)OC(C)(C)C)CC1` [Example 34, tert-Butyl ((trans)-4-((E)-1-(4-(((4,6-dimethyl-2-oxo-1,2-dihydropyridin-3-yl)methyl)carbamoyl)-3-methylthiophen-2-yl)prop-1-en-1-yl)cyclohexyl)carbamate] belongs 100 nM; to `CCOC(=O)N(CC)c1scc(C(=O)NCc2c(C)cc(C)[nH]c2=O)c1C` [Example 65, Ethyl (4-(((4,6-dimethyl-2-oxo-1,2-dihydropyridin-3-yl)methyl)carbamoyl)-3-methylthiophen-2-yl)(ethyl)carbamate], 200 nM; to `CCN(c1sc(-c2ccoc2)c(C(=O)NCc2c(C)cc(C)[nH]c2=O)c1C)[C@H]1CC[C@H](N(C)C)CC1` [Example 77, N-((4,6-dimethyl-2-oxo-1,2-dihydropyridin-3-yl)methyl)-5-(((trans)-4-(dimethylamino)cyclohexyl)(ethyl)amino)-2-(furan-3-yl)-4-methylthiophene-3-carboxamide], 32 nM.
In the case of `CCN(C)[C@H]1CC[C@H](N(CC)c2scc(C(=O)NCc3c(C)cc(C)[nH]c3=O)c2C)CC1` [Example 64, N-((4,6-dimethyl-2-oxo-1,2-dihydropyridin-3-yl)methyl)-5-(ethyl((trans)-4-(ethyl(methyl)amino)cyclohexyl)amino)-4-methylthiophene-3-carboxamide], the IC50 is 16 nM.
To `CCN(c1sc(C2CCN(S(C)(=O)=O)C2)c(C(=O)NCc2c(C)cc(C)[nH]c2=O)c1C)C1CCOCC1` (stereo not shown) [Example 62, N-((4,6-Dimethyl-2-oxo-1,2-dihydropyridin-3-yl)methyl)-5-(ethyl(tetrahydro-2H-pyran-4-yl)amino)-4-methyl-2-(1-(methylsulfonyl)pyrrolidin-3-yl)thiophene-3-carboxamide] belongs 501 nM; to `Cc1cc(C)c(CNC(=O)c2csc(C(O)[C@H]3CC[C@H](N(C)C)CC3)c2C)c(=O)[nH]1` (stereo partly drawn) [Example 38, N-((4,6-dimethyl-2-oxo-1,2-dihydropyridin-3-yl)methyl)-5-(((trans)-4-(dimethylamino)cyclohexyl)(hydroxy)methyl)-4-methylthiophene-3-carboxamide], 158 nM; to `CCN(c1scc(C(=O)NCc2c(C)cc(C)[nH]c2=O)c1C)C1CCNCC1F` (stereo not shown) [Example 67, N-((4,6-dimethyl-2-oxo-1,2-dihydropyridin-3-yl)methyl)-5-(ethyl(3-fluoropiperidin-4-yl)amino)-4-methylthiophene-3-carboxamide], 20 nM.
Under `CCN(c1sc(-c2cnn(C)c2)c(C(=O)NCc2c(C)cc(C)[nH]c2=O)c1C)C1CCOCC1` [Example 78, N-((4,6-dimethyl-2-oxo-1,2-dihydropyridin-3-yl)methyl)-5-(ethyl(tetrahydro-2H-pyran-4-yl)amino)-4-methyl-2-(1-methyl-1H-pyrazol-4-yl)thiophene-3-carboxamide] stands 100 nM.
